Reference: US8748417B2, “Amino-pyrrolidine-azetidine diamides as monoacylglycerol lipase inhibitors” (Janssen Pharmaceutica, NV, priority 2010, dated 2014)
Where a chain is given by its changes, count along the chain named.

Assays:
Assay type in all cases: biochemical
[1] = biological target: T1, purified mutant MGL (mut-MGLL 11-313 L179S L186S) (Homo sapiens, UniProt Q99685, L169S/L176S); experiment: MGL enzyme activity assay (4MU-B cleavage), mutant MGL; settings: mutant MGL 5 nM, 4MU-B 10 μM, 37° C.; read-out: MGL mutant inh IC50
T1 construct: purified mutant MGL (mut-MGLL 11-313 L179S L186S)
T1 sequence (Q99685 1-303 L169S/L176S): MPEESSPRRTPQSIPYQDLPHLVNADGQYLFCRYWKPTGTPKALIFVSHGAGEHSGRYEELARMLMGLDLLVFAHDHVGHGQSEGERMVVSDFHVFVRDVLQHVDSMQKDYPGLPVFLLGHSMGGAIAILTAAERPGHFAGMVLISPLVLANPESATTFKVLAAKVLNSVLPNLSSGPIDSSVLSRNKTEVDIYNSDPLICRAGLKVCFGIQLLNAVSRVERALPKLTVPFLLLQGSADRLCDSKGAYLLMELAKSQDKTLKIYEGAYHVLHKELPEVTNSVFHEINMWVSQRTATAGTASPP
Protocol: All rate-based assays were performed in black 384-well polypropylene PCR microplates (Abgene) in a total volume of 30 μL. Substrate 4-methylumbelliferyl butyrate (4MU-B; Sigma) and either purified mutant MGL (mut-MGLL 11-313 L179S L186S) or purified wild type MGL (wt-MGLL 6H-11-313) were diluted separately into 20 mM PIPES buffer (pH=7.0), containing 150 mM NaCl and 0.001% Tween 20. Compounds of Formula (I) were pre-dispensed (50 nL) into the assay plate using a Cartesian Hummingbird prior to adding 4MU-B (25 μL of 1.2× solution to a final concentration of 10 μM) followed by enzyme (5 μL of a 6× solution to a final concentration of 5 nM) to initiate the reaction. Final compound concentrations ranged from 17 to 0.0003 μM. The fluorescence change due to 4MU-B cleavage was monitored with excitation and emission wavelengths of 335 and 440 nm, respectively, and a bandwidth of 10 nm (Safire^2, Tecan) at 37° C. for 5 min.
The IC50 values for the following compounds were determined using Microsoft Office Excel from a fit of the equation to the concentration-response plot of the fractional activity as a function of inhibitor concentration.

[2] = system: MGL (rat brain homogenate); experiment: 2-AG accumulation assay in rat brain homogenate; settings: percent of vehicle 2-AG accumulation; for Rat Brain 2AG % VehCntrl (%) @10 μM: compound 10 μM; for Rat Brain 2AG % VehCntrl (%) @1 μM: compound 1 μM
How it was run: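 Rat brain homogenate was incubated with compound for 15 min at 37° C., after which CaCl2 was added to a final concentration of 10 mM and incubation continued for 15 min at 37° C. in 5 mL total. Reactions were stopped with 6 mL of 2:1 chloroform/methanol, and 2-AG accumulated in the organic phase was quantified by HPLC/MS.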

[3] = biological target: T2, purified wild type MGL (wt-MGLL 6H-11-313) (Homo sapiens, UniProt Q99685); experiment: MGL enzyme activity assay (4MU-B cleavage), wild type MGL; settings: wild type MGL 5 nM, 4MU-B 10 μM, 37° C.; read-out: MGL wild type inh IC50
T2 construct: purified wild type MGL (wt-MGLL 6H-11-313)
T2 sequence (Q99685 1-303): T1 sequence (Q99685 1-303 L169S/L176S) with S169L, S176L
How it was run: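 Enzyme in 20 mM PIPES pH 7.0, 150 mM NaCl, 0.001% Tween 20 with 4MU-B at 10 μM final and MGL at 5 nM final; compounds 17 to 0.0003 μM final, enzyme added last. Fluorescence (ex 335/em 440 nm) followed at 37° C for 5 min; IC50 from fit of fractional activity versus inhibitor concentration.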

Row | SMILES | IC50 [1] [nM] | IC50 [3] [nM] | Rat Brain 2AG % VehCntrl (%) @10 μM [2] [%] | Rat Brain 2AG % VehCntrl (%) @1 μM [2] [%]
1 | O=C(c1ccc(Cc2ccccc2)cc1)N1CC(N[C@H]2CCN(C(=O)c3nccs3)C2)C1 [Cpd 3, (3S)-N-{1-[(4-Benzylphenyl)carbonyl]azetidin-3-yl}-1-(1,3-thiazol-2-ylcarbonyl)pyrrolidin-3-amine] | 21.8 | – | 844 | –
2 | O=C(c1ccc(Cc2ccccc2)cc1)N1CC(N[C@H]2CCN(C(=O)c3ccccc3)C2)C1 [Cpd 4, (3S)-N-{1-[(4-Benzylphenyl)carbonyl]azetidin-3-yl}-1-(phenylcarbonyl)pyrrolidin-3-amine] | 12 | – | 1033 | –
3 | O=C(c1ccc(Cc2ccccc2)cc1)N1CC(N[C@H]2CCN(C(=O)c3ccsc3)C2)C1 [Cpd 5, (3S)-N-{1-[(4-Benzylphenyl)carbonyl]azetidin-3-yl}-1-(thiophen-3-ylcarbonyl)pyrrolidin-3-amine] | < 5 | – | 962 | –
4 | CN(C1CN(C(=O)c2ccc(Cc3ccccc3)cc2)C1)[C@H]1CCN(C(=O)c2ccccc2)C1 [Cpd 14, (3S)-N-{1-[(4-Benzylphenyl)carbonyl]azetidin-3-yl}-N-methyl-1-(phenylcarbonyl) pyrrolidin-3-amine] | 5 | – | – | 484
5 | CN(C1CN(C(=O)c2ccc(-c3cccc(C(F)(F)F)c3)cc2)C1)[C@H]1CCN(C(=O)c2ccccc2)C1 [Cpd 15, (3S)-N-Methyl-1-(phenylcarbonyl)-N-(1-{[3′-(trifluoromethyl)biphenyl-4-yl]carbonyl}azetidin-3-yl)pyrrolidin-3-amine] | 11.7 | 26.5 | – | 649
6 | O=C(c1ccc(-c2cc(Cl)cc(Cl)c2)cc1)N1CC(N[C@H]2CCN(C(=O)c3ccccc3)C2)C1 [Cpd 17, (3S)-N-{1-[(3′,5′-Dichlorobiphenyl-4-yl)carbonyl]azetidin-3-yl}-1-(phenylcarbonyl)pyrrolidin-3-amine] | 41 | – | – | 441
7 | O=C(c1ccccc1)N1CC[C@H](NC2CN(C(=O)c3cc4cc(OC(F)(F)F)ccc4s3)C2)C1 [Cpd 18, (3S)-1-(Phenylcarbonyl)-N-(1-{[5-(trifluoromethoxy)-1-benzothiophen-2-yl]carbonyl}azetidin-3-yl)pyrrolidin-3-amine] | 16.8 | 17.6 | – | 229
8 | O=C(c1ccccc1)N1CC[C@H](NC2CN(C(=O)c3cc4ccc(C(F)(F)F)cc4s3)C2)C1 [Cpd 20, (3S)-1-(Phenylcarbonyl)-N-(1-{[6-(trifluoromethyl)-1-benzothiophen-2-yl]carbonyl}azetidin-3-yl)pyrrolidin-3-amine] | 80.4 | – | – | 304
9 | O=C(c1ccccc1)N1CC[C@H](NC2CN(C(=O)c3sc4cc(Br)ccc4c3Cl)C2)C1 [Cpd 21, (3S)-N-{1-[(6-Bromo-3-chloro-1-benzothiophen-2-yl)carbonyl]azetidin-3-yl}-1-(phenylcarbonyl)pyrrolidin-3-amine] | 5 | – | – | 596
10 | O=C(c1ccc2c(Br)cccc2c1)N1CC(N[C@H]2CCN(C(=O)c3ccccc3)C2)C1 [Cpd 22, (3S)-N-{1-[(5-Bromonaphthalen-2-yl)carbonyl]azetidin-3-yl}-1-(phenylcarbonyl)pyrrolidin-3-amine] | 33.5 | – | – | 223
11 | O=C(c1ccc2c(-c3ccccc3)cccc2c1)N1CC(N[C@H]2CCN(C(=O)c3ccccc3)C2)C1 [Cpd 23, (3S)-1-(Phenylcarbonyl)-N-{1-[(5-phenylnaphthalen-2-yl)carbonyl]azetidin-3-yl}pyrrolidin-3-amine] | 14.9 | – | – | 293
12 | O=C(c1ccc2c(-c3ccccc3C(F)(F)F)cccc2c1)N1CC(N[C@H]2CCN(C(=O)c3ccccc3)C2)C1 [Cpd 24, (3S)-1-(Phenylcarbonyl)-N-[1-({5-[2-(trifluoromethyl)phenyl]naphthalen-2-yl}carbonyl)azetidin-3-yl]pyrrolidin-3-amine] | 8.5 | – | – | 706
13 | O=C(c1ccc2c(-c3cccc(C(F)(F)F)c3)cccc2c1)N1CC(N[C@H]2CCN(C(=O)c3ccccc3)C2)C1 [Cpd 25, (3S)-1-(Phenylcarbonyl)-N-[1-({5-[3-(trifluoromethyl)phenyl]naphthalen-2-yl}carbonyl)azetidin-3-yl]pyrrolidin-3-amine] | 7 | < 5 | – | 823
14 | O=C(c1ccc2c(c1)Cc1ccccc1-2)N1CC(N[C@H]2CCN(C(=O)c3ccccc3)C2)C1 [Cpd 27, (3S)-N-[1-(9H-Fluoren-2-ylcarbonyl)azetidin-3-yl]-1-(phenylcarbonyl)pyrrolidin-3-amine] | 96.7 | – | – | 125
15 | O=C(c1ccccc1)N1CC[C@H](NC2CN(C(=O)c3sc4cc(C(F)(F)F)ccc4c3Cl)C2)C1 [Cpd 28, (3S)-N-(1-{[3-Chloro-6-(trifluoromethyl)-1-benzothiophen-2-yl]carbonyl}azetidin-3-yl)-1-(phenylcarbonyl)pyrrolidin-3-amine] | < 5 | – | – | 511

Now from value to compound, other results behind:

Row | IC50 [1] [nM] | IC50 [3] [nM] | SMILES | Rat Brain 2AG % VehCntrl (%) @10 μM [2] [%] | Rat Brain 2AG % VehCntrl (%) @1 μM [2] [%]
16 | 13.2 | – | O=C(c1ccc2c(Br)cccc2c1)N1CC(N(O)[C@H]2CCN(C(=O)c3ccccc3)C2)C1 [Cpd 34, (3S)-N-{1-[(5-Bromonaphthalen-2-yl)carbonyl]azetidin-3-yl}-N-hydroxy-1-(phenylcarbonyl)pyrrolidin-3-amine] | – | 645
17 | 47.7 | – | Cc1c(C(=O)N2CC(N[C@H]3CCN(C(=O)c4ccccc4)C3)C2)sc2ccc(Cl)cc12 [Cpd 37, (3S)-N-{1-[(5-Chloro-3-methyl-1-benzothiophen-2-yl)carbonyl]azetidin-3-yl}-1-(phenylcarbonyl)pyrrolidin-3-amine] | – | 381
18 | 226 | 6.6 | O=C(c1ccccc1)N1CC[C@H](NC2CN(C(=O)c3cc4cc(-c5ccc(C(F)(F)F)cc5)ccc4s3)C2)C1 [Cpd 52, (3S)-1-(Phenylcarbonyl)-N-[1-({5-[4-(trifluoromethyl)phenyl]-1-benzothiophen-2-yl}carbonyl)azetidin-3-yl]pyrrolidin-3-amine] | – | –
19 | 33 | 464 | O=C(c1ccc(-c2ccccc2)cc1)N1CC(NC2CN(C(=O)c3ccccc3)CC2F)C1 (centres unmarked) [Cpd 58, N-[1-(Biphenyl-4-ylcarbonyl)azetidin-3-yl]-4-fluoro-1-(phenylcarbonyl)pyrrolidin-3-amine] | – | –
20 | 84.5 | – | Cc1c(C(=O)N2CC(N[C@H]3CCN(C(=O)c4ccccc4)C3)C2)sc2ccccc12 [Cpd 68, (3S)-N-{1-[(3-Methyl-1-benzothiophen-2-yl)carbonyl]azetidin-3-yl}-1-(phenylcarbonyl)pyrrolidin-3-amine] | – | 161
21 | 25.5 | – | O=C(c1ccccc1)N1CC[C@H](NC2CN(C(=O)c3sc4cc(F)ccc4c3C3CC3)C2)C1 [Cpd 70, (3S)-N-{1-[(3-Cyclopropyl-6-fluoro-1-benzothiophen-2-yl)carbonyl]azetidin-3-yl}-1-(phenylcarbonyl)pyrrolidin-3-amine] | – | 217
22 | 15.8 | – | O=C(c1ccc(C(F)(F)c2ccccc2)cc1)N1CC(N[C@H]2CCN(C(=O)c3ccccc3)C2)C1 [Cpd 73, (3S)-N-[1-({4-[Difluoro(phenyl)methyl]phenyl}carbonyl)azetidin-3-yl]-1-(phenylcarbonyl)pyrrolidin-3-amine] | – | 441
